Source: patent US10906888B2, “Pyrimidine carboxamides as inhibitors of Vanin-1 enzyme” (Pfizer Inc., priority 2016, dated 2021)

biological target: human vanin-1 (Homo sapiens (Human), UniProt O95497); experiment: Human Vanin-1 Enzyme Assay 1; assay type: biochemical; settings: 25 pM human vanin-1, 50 uM pantetheine 7-amino-4-trifluoromethylcoumarin substrate
Method: Human Vanin-1Enzyme Assay 1.
The in vitro assay measures enzymatic cleavage of the fluorescently-labeled vanin substrate, pantetheine 7-amino-4-trifluoromethylcoumarin, by human vanin-1.
The vanin-1 protein was prepared in-house from a construct expressing the extracellular domain of human vanin-1 (GenBank ID NM_004666) preceded N-terminally by the honey bee melittin signal peptide, a GSG linker sequence, a His6× tag and a FLAG tag. The secreted, soluble enzyme was purified from the conditioned medium from a CHO cell line stably expressing the resulting protein. Enzyme purification was performed through sequential Ni NTA and size-exclusion chromatography steps.
Intermediate concentrations were prepared by diluting in DMSO in a four-fold series for a total of 11 data points.
To begin the assay 100 nL was transferred from the compound plate to the assay plate. Next, 15 μL of the vanin-1 working solution were transferred to the assay plate. The inhibitor and enzyme were incubated at room temperature for 30 minutes. The enzyme reaction was then initiated by the addition of 5 μL of 200 μM pantetheine 7-amino-4-trifluoromethylcoumarin prepared in assay buffer. […] The final concentration of DMSO was 0.5%.

Chain of human vanin-1 (O95497 22-491): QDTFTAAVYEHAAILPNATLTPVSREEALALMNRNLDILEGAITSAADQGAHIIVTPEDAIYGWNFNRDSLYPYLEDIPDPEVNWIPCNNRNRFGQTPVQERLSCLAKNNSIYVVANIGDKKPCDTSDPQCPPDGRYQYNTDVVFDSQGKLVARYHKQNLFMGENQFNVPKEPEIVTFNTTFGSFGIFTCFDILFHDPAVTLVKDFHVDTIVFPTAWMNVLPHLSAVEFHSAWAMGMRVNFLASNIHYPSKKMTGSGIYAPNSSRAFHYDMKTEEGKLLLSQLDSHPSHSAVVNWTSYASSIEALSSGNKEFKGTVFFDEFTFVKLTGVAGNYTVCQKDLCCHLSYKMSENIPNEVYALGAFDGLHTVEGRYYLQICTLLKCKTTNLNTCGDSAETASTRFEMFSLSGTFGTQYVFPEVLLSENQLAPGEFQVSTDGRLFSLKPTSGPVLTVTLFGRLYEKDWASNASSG

Structure (SMILES) | IC50 [nM]
O=C(c1cnc(NCc2cccnc2)nc1)N1CCCC(O)C1 (stereo not drawn) [Example 22] | 559
Cc1nc(NCc2cnccn2)ncc1C(=O)N1CCC2(CCOCC2)C1 [Example 139] | > 17600
O=C(c1cnc(NCc2cccnc2)nc1)N1CC2CCC(CC2)C1 [Example 27] | 1370
CC(=O)NC1CCCN(C(=O)c2cnc(NCc3cccnc3)nc2)C1 (stereo not drawn) [Example 23] | 613
CN1CC2(COCCN(C(=O)c3cnc(NC4(c5cncnc5)CC4)nc3)C2)OC1=O (stereo not drawn) [Example 75] | 1080
O=C(c1cnc(NC2(c3cncnc3)CC2)nc1)N1CCCC[C@H]1CO [Example 45] | 1850
CN1CC2CN(C(=O)c3cnc(NCc4cnccn4)nc3)CC2C1 (stereo not drawn) [Example 123] | 11400
O=C(c1cnc(NCc2cnc(C(F)(F)F)nc2)nc1)N1CCC2(CCOCC2)C1 [Example 168] | 192
O=C(Nc1ncc(C(=O)N2CCC3(CCOCC3)C2)cn1)c1cnccn1 [Example 204, N-[5-(8-oxa-2-azaspiro[4.5]dec-2-ylcarbonyl)pyrimidin-2-yl]pyrazine-2-carboxamide] | 5160
Cc1ccc(C2(Nc3ncc(C(=O)N4CCC5(CCOCC5)C4)cn3)CC2)cn1 [Example 175] | 0.24
C[C@H]1COCCN1C(=O)c1cnc(NC2(c3cncnc3)CC2)nc1 [Example 55] | 2520
O=C(c1cnc(NCc2cnccn2)nc1)N1CCN2C[C@H](O)C[C@H]2C1 [Example 111] | 3590
O=C(c1cnc(NCc2cccnc2)nc1)N1CCC(O)C1 (stereo not drawn) [Example 25] | 1040
O=C(c1cnc(NCc2cccnc2)nc1)N1CCC(O)CC1 [Example 21] | 528
O=C(c1cnc(NCc2cccnc2)nc1)N1CCOCC(O)C1 (stereo not drawn) [Example 20] | 453
O=C(c1cnc(NCc2cnccn2)nc1)N1CCN2CC(F)(F)C[C@H]2C1 [Example 116] | 113

Structure (SMILES) | IC50 [nM]
O=C(c1cnc(OCc2cncnc2)nc1)N1CCC2(CCOCC2)C1 [Example 203, 8-oxa-2-azaspiro[4.5]dec-2-yl[2-(pyrimidin-5-ylmethoxy)pyrimidin-5-yl]methanone] | 1090
O=C(c1cnc(NCc2cccnc2)nc1)N1[C@@H]2CC[C@H]1C[C@@H](O)C2 [Example 28] | 1550
C[C@H](Nc1ncc(C(=O)N2C[C@H](O)[C@@H](N3CCOCC3)C2)cn1)c1cnccn1 [Example 113] | 508
O=C(c1cnc(NCc2cccnc2)nc1)N1C[C@@H]2[C@@H](CO)[C@@H]2C1 [Example 18] | 385
NC(=O)CC1CCN(C(=O)c2cnc(NCc3cccnc3)nc2)CC1 [Example 30] | 2170
C[C@@H]1CN(C(=O)c2cnc(NC3(c4cncnc4)CC3)nc2)C[C@H](C)C1O (stereo partly drawn) [Example 44] | 2270
O=C(Nc1ncc(C(=O)N2CCC3(CCOCC3)C2)cn1)c1cncnc1 [Example 205, N-[5-(8-oxa-2-azaspiro[4.5]dec-2-ylcarbonyl)pyrimidin-2-yl]pyrimidine-5-carboxamide] | 8800
O=C(c1cnc(NC2(c3cncnc3)CC2)nc1)N1C2CCC1COC2 [Example 97] | 345
O=C(c1cnc(NCc2cnccn2)nc1)N1C[C@H](O)[C@@H](N2CCOCC2)C1 [Example 115] | 16000
CC1(CO)CCN(C(=O)c2cnc(NCc3cccnc3)nc2)CC1 [Example 15] | 220
O=C(c1cnc(NC2(c3cncnc3)CC2)nc1)N1CCCC2(CCCC[C@H]2O)C1 (stereo partly drawn) [Example 100] | 135
O=C(c1cnc(NC2(c3cncnc3)CC2)nc1)N1CCC[C@H]1CO [Example 66] | 231
C[C@@H](Nc1ncc(C(=O)N2CCC3(CCOCC3)C2)cn1)c1ccnnc1 [Example 154] | 337
CN1C[C@@H]2C[C@H]1CN2C(=O)c1cnc(NCc2cnccn2)nc1 [Example 112] | > 18900
C[C@@H]1COCCN1C(=O)c1cnc(NC2(c3cncnc3)CC2)nc1 [Example 103] | 590
O=C(c1cnc(NCc2cnc(C(F)(F)F)nc2)nc1)N1CC2(CCOCC2)C1 [Example 169] | 158

Second part, the molecule after the results:

IC50 [nM] | Structure (SMILES)
3.04 | C[C@H](Nc1ncc(C(=O)N2CCN3CCC[C@H]3C2)cn1)c1cnccn1 [Example 125]
1.31 | O=C(c1cnc(NCc2cccnc2)nc1)N1CCC2(CCOCC2)C1 [Example 1]
30.8 | O=C(c1cnc(NC2(c3cncnc3)CC2)nc1)N1CCCC(CO)C1 (stereo not drawn) [Example 106]
0.582 | CCC1(CO)CCN(C(=O)c2cnc(NC3(c4cncnc4)CC3)nc2)C1 (single isomer, unassigned) [Example 201]
20.2 | O=C(c1cnc(NC2(c3cncnc3)CC2)nc1)N1CCC(C(F)(F)F)C1 (single isomer, unassigned) [Example 194]
45 | O=C(c1cnc(NC2(c3cncnc3)CC2)nc1)N1CCN2CCCCCC2C1 (stereo not drawn) [Example 41]
108 | O=C(c1cnc(NC2(c3cncnc3)CC2)nc1)N1C[C@H]2CC[C@@H](C1)O2 [Example 33]
20.4 | O=C(c1cnc(NC2(c3cncnc3)CC2)nc1)N1CCC(O)C(C(F)(F)F)C1 (stereo not drawn) [Example 94]
16 | O=C(c1cnc(NCc2cccnc2)nc1)N1CC(O)(C2CC2)C1 [Example 5]
84.1 | C[C@H](Nc1ncc(C(=O)N2CC[C@@H](N3CCOCC3)C2)cn1)c1cnccn1 [Example 120]
1.33 | O=C(c1cnc(NCc2cccnc2)nc1)N1CC2(CCOCC2)C1 [Example 2]
97.5 | CO[C@H]1CCN(C(=O)c2cnc(NC3(c4cncnc4)CC3)nc2)C1 [Example 51]
9.44 | CC1CCCN(C(=O)c2cnc(NC3(c4cncnc4)CC3)nc2)C1 (stereo not drawn) [Example 39]
101 | NC(=O)C1CCCN(C(=O)c2cnc(NCc3cccnc3)nc2)C1 (stereo not drawn) [Example 13]
26.3 | Cc1cnc(CNc2ncc(C(=O)N3CC4(CCOCC4)C3)cn2)cn1 [Example 165]
0.349 | O=C(c1cnc(NC2(c3cnccn3)COC2)nc1)N1CCC2(CCOCC2)C1 [Example 132]
14.3 | CCC1(CO)CCN(C(=O)c2cnc(NC3(c4cncnc4)CC3)nc2)C1 (single isomer, unassigned) [Example 202]
0.504 | CCC1(CC)CCN(C(=O)c2cnc(NC3(c4cncnc4)CC3)nc2)C1 [Example 37]
102 | O=C(c1cnc(NC2(c3cncnc3)CC2)nc1)N1CCC(C(F)F)CC1 [Example 81]
57.7 | O=C(c1cnc(NCc2cncnc2C(F)(F)F)nc1)N1CC2(CCOCC2)C1 [Example 167]
1.69 | O=C(c1cnc(NCc2cccnc2)nc1)N1C[C@H]2CCC[C@@H](O)[C@H]2C1 (relative stereo) [Example 3]
35 | O=C(c1cnc(NC2(c3cncnc3)CC2)nc1)N1C[C@H](O)C[C@H](C(F)(F)F)C1 [Example 89]
65.9 | O=C(c1cnc(NCc2cnccn2)nc1)N1CCN2CCC[C@H]2C1 [Example 129]

IC50 [nM] | Structure (SMILES)
8.06 | Cc1ccc(C(C)Nc2ncc(C(=O)N3CCC4(CCOCC4)C3)cn2)nc1 (stereo not drawn) [Example 161]
2.84 | Cc1ncc(C(C)Nc2ncc(C(=O)N3CC4(CCOCC4)C3)cn2)cn1 (stereo not drawn) [Example 160]
17.9 | O=C(c1cnc(NCc2cccnc2)nc1)N1CCC(C(F)(F)F)C1 (stereo not drawn) [Example 7]
6.29 | CCC1(C)CCN(C(=O)c2cnc(NC3(c4cncnc4)CC3)nc2)CC1 [Example 46]
36 | O=C(c1cnc(NC2(c3cncnc3)CC2)nc1)N1CC2CCC1CO2 (stereo not drawn) [Example 105]
1.85 | O=C(c1cnc(NC2(c3cncnc3)CC2)nc1)N1CC2CCCC2C1 (stereo not drawn) [Example 69]
0.867 | O=C(c1cnc(NC2(c3cncnc3)CC2)nc1)N1CC2(CCOCC2)C1 [Example 189]
94.1 | CO[C@@H]1[C@@H]2CC[C@H]1CN(C(=O)c1cnc(NCc3cccnc3)nc1)C2 [Example 12]
81.7 | O=C(c1cnc(NCc2cccnc2)nc1)N1CCC(CO)C1 (stereo not drawn) [Example 11]
54.5 | C[C@@H](Nc1ncc(C(=O)N2CC3(CCOCC3)C2)cn1)c1cnccn1 [Example 148]
3.62 | O=C(c1cnc(NC2(c3cncnc3)CC2)nc1)N1CCCC(C(F)(F)F)C1 (stereo not drawn) [Example 74]
27.3 | Cc1cnc(CNc2ncc(C(=O)N3CCC4(CCOCC4)C3)cn2)cn1 [Example 164]
1.82 | Cc1cc(C2CCN(C(=O)c3cnc(NC4(c5cncnc5)CC4)nc3)C2)[nH]n1 (stereo not drawn) [Example 65]
55.1 | CC1(CO)CCN(C(=O)c2cnc(NC3(c4cncnc4)CC3)nc2)CC1 [Example 83]
50.9 | CCOCC1(F)CCN(C(=O)c2cnc(NC3(c4cncnc4)CC3)nc2)CC1 [Example 92]
1.57 | CC1(C)CCN(C(=O)c2cnc(NC3(c4cncnc4)CC3)nc2)C1 [Example 191]
0.196 | Cc1cnc(C(C)(C)Nc2ncc(C(=O)N3CC4(CCOCC4)C3)cn2)cn1 [Example 180]
10.7 | N#CC1CCCN(C(=O)c2cnc(NC3(c4cncnc4)CC3)nc2)C1 (stereo not drawn) [Example 195]
8.58 | CCC1(CO)CCN(C(=O)c2cnc(NCc3cccnc3)nc2)C1 (stereo not drawn) [Example 4]
75.4 | CO[C@@H]1CN(C(=O)c2cnc(NC3(c4cncnc4)CC3)nc2)C[C@H]1F [Example 84]
38.6 | C[C@H]1CN(C(=O)c2cnc(NC3(c4cncnc4)CC3)nc2)CCO1 [Example 107]
0.283 | CC1CC2(CCN(C(=O)c3cnc(NC4(c5cncnc5)CC4)nc3)C2)CC(C)O1 (stereo not drawn) [Example 54]
5.41 | COCC1CCCN(C(=O)c2cnc(NC3(c4cncnc4)CC3)nc2)C1 (stereo not drawn) [Example 71]
